Reference: patent US6610708B1, “Cyclic amino compounds” (Sankyo Company, Limited, priority 1998, dated 2003)

Tests used:
Human Platelets = experiment: Antiaggregatory action in human platelets (ADP-induced aggregation in platelet-rich plasma); assay type: cell-based; details: human PRP; for inhibition at 10 µg/mL / inhibition at 30 µg/mL / inhibition at 100 µg/mL: Platelet, read-out: Test 1 (% inhibition) of platelet aggregation
Procedure: Antiaggregatory Action in Human Platelets
Platelet aggregation was measured using an automatic platelet aggregometer (PAM-8C, Mebanix) using the method of G.V.R. Born [Nature, 194, 927-929 ([…])] with a slight modification. Blood was collected from the antecubital vein of healthy volunteers who had not taken any medications for two weeks using 3.8% sodium citrate as an anticoagulant ( 1/9 volumes of blood). Platelet-rich plasma (PRP) was obtained by centrifugation (CR5DL, Hitachi) at 200× g for 15 min at room temperature. Platelet-poor plasma (PPP) was obtained by centrifugation of the remaining blood at 2,000× g for 10 min at room temperature. Platelet counts in PRP were measured by an automatic hematology analyzer (K-1000, Toa Iyo Denshi), and adjusted to 3×10^8 /ml by adding PPP. PRP prepared as described above was used for the platelet aggregation experiment. PRP (0.24 ml) containing a test compound was added to a cuvette and set placed in the platelet aggregometer. After pre-incubation for 1.5 min at 37° C., 0.01 ml of 0.25 mM ADP were added to the cuvette to induce platelet aggregation. Platelet aggregation was monitored for 10 min.
Antiaggregatory action of the test compound was determined as a percent inhibition (%) against platelet aggregation of a control (free of the test compound).

| Structure (SMILES) | melting point [°C] | inhibition at 10 µg/mL (Human Platelets; 10 μg/ml test compound) [%] | inhibition at 30 µg/mL (Human Platelets; 30 μg/ml test compound) [%] | inhibition at 100 µg/mL (Human Platelets; 100 μg/ml test compound) [%] | other results |
| --- | --- | --- | --- | --- | --- |
| O=C(C1CC1)C(c1ccccc1F)N1CCC(SSc2ccc([N+](=O)[O-])cc2[N+](=O)[O-])CC1 (centres unmarked) | 120 to 127 |  |  |  |  |
| Cc1ccc(S(=O)(=O)SC2CCN(C(C(=O)C3CC3)c3ccccc3F)CC2)cc1 (stereo not drawn) [Example 1, 1-(α-Cyclopropylcarbonyl-2-fluorobenzyl)-4-(4-methylphenylsulfonylthio)-piperidine] | 63 to 69 | 36.5 | 99.6 | 100 |  |
| COC(=O)C(c1ccccc1Cl)N1CCC(SS(=O)(=O)c2ccc(C)cc2)CC1 (stereo not drawn) [Example 2 (d), 1-(2-Chloro-α-methoxycarbonylbenzyl)-4-(4-methylphenylsulfonylthio)-piperidine] |  | 32.8 | 97.1 | 98 |  |
| COC(=O)C(c1ccccc1Cl)N1CCC(SS(=O)(=O)c2ccc(C)cc2)CC1 (stereo not drawn) [Example 2, 1-(2-Chloro-α-methoxycarbonylbenzyl)-4-(4-methylphenylsulfonylthio)-piperidine] | 100 to 115 |  |  |  |  |
| COC(=O)C(c1ccccc1F)N1CCC(SS(=O)(=O)c2ccc(C)cc2)CC1 (stereo not drawn) [Example 3 (d), 1-(2-Fluoro-α-methoxycarbonylbenzyl)-4-(4-methylphenylsulfonylthio)-piperidine] |  | 24.4 | 89.3 | 99.8 |  |
| COC(=O)C(c1ccccc1F)N1CCC(SS(=O)(=O)c2ccc(C)cc2)CC1 (stereo not drawn) [Example 3, 1-(2-Fluoro-α-methoxycarbonylbenzyl)-4-(4-methylphenylsulfonylthio)-piperidine] | 106 to 109 |  |  |  |  |
| Cc1ccc(S(=O)(=O)SC2CCN(C(C(=O)C3CC3)c3ccccc3F)C2)cc1 (stereo not drawn) [Example 4 (d), 1-(α-Cyclopropylcarbonyl-2-fluorobenzyl)-3-(4-methylphenylsulfonylthio)-pyrrolidine] |  | 30.6 | 77.6 | 99.5 |  |
| Cc1ccc(S(=O)(=O)SC2CCN(C(C(=O)C3CC3)c3ccccc3F)C2)cc1 (stereo not drawn) [Example 4, 1-(α-Cyclopropylcarbonyl-2-fluorobenzyl)-3-(4-methylphenylsulfonylthio)-pyrrolidine] | 98 to 106 |  |  |  |  |
| Cc1ccc(S(=O)(=O)SC2CN(C(C(=O)C3CC3)c3ccccc3F)C2)cc1 (stereo not drawn) [Example 5 (d), 1-(α-Cyclopropylcarbonyl-2-fluorobenzyl)-3-(4-methylphenylsulfonylthiol)-azetidine] |  |  |  |  | Test 1 (% inhibition) of platelet aggregation (Human Platelets; 10 μg/ml test compound): 37.1%; Test 1 (% inhibition) of platelet aggregation (Human Platelets; 30 μg/ml test compound): 98.4%; Test 1 (% inhibition) of platelet aggregation (Human Platelets; 100 μg/ml test compound): 99.6% |
| CCOC(=O)/C=C1\CN(C(C(=O)C2CC2)c2ccccc2F)CCC1SS(=O)(=O)c1ccc(C)cc1 (stereo not drawn) [Example 6, (E)-1-(α-Cyclopropylcarbonyl-2-fluorobenzyl)-3-ethoxycarbonylmethylidene-4-(4-methylphenylsulfonylthio)piperidine] | 94 to 103 |  |  |  |  |
| COC(=O)/C=C1\CN(C(C(=O)OC)c2ccccc2Cl)CCC1SS(=O)(=O)c1ccc(C)cc1 (stereo not drawn) [Example 7 (ii), (E)-1-(2-Chloro-α-methoxycarbonylbenzyl)-3-methoxycarbonylmethylidene-4-(4-methylphenylsulfonylthio)piperidine] | 144 to 146 | 34.5 | 81.5 |  |  |
| CS(=O)(=O)SC1CCN(C(C(=O)C2CC2)c2ccccc2F)CC1 (stereo not drawn) [Example 8, 1-(α-Cyclopropylcarbonyl-2-fluorobenzyl)-4-methylsulfonylthiopiperidine] | 89 to 91 | 19.5 | 88 | 100 |  |
| O=C(C1CC1)C(c1ccccc1F)N1CCC(SS(=O)(=O)c2ccccc2)CC1 (stereo not drawn) [Example 9 (b), 1-(α-Cyclopropylcarbonyl-2-fluorobenzyl)-4-phenylsulfonylthiopiperidine] |  | 23.4 | 97.3 | 94 |  |
| O=C(C1CC1)C(c1ccccc1F)N1CCC(SS(=O)(=O)c2ccccc2)CC1 (stereo not drawn) [Example 9, 1-(α-Cyclopropylcarbonyl-2-fluorobenzyl)-4-phenylsulfonylthiopiperidine] | 105 to 116 |  |  |  |  |
| O=C(C1CC1)C(c1ccccc1F)N1CCC(SS(=O)(=O)c2ccc(Cl)cc2)CC1 (stereo not drawn) [Example 10 (b), 4-(4-Chlorophenylsulfonylthio)-1-(α-cyclopropylcarbonyl-2-fluorobenzyl)-piperidine] |  | 35.2 | 96.2 | 98.8 |  |
| O=C(C1CC1)C(c1ccccc1F)N1CCC(SS(=O)(=O)c2ccc(Cl)cc2)CC1 (stereo not drawn) [Example 10, 4-(4-Chlorophenylsulfonylthio)-1-(α-cyclopropylcarbonyl-2-fluorobenzyl)-piperidine] | 108 to 116 |  |  |  |  |
| O=C(C1CC1)C(c1ccccc1F)N1CCC(SS(=O)(=O)c2ccc(F)cc2)CC1 (stereo not drawn) [Example 11 (b), 1-(α-Cyclopropylcarbonyl-2-fluorobenzyl)-4-(4-fluorophenylsulfonylthio)-piperidine] |  | 15.5 | 98 | 92.5 |  |
| O=C(C1CC1)C(c1ccccc1F)N1CCC(SS(=O)(=O)c2ccc(F)cc2)CC1 (stereo not drawn) [Example 11, 1-(α-Cyclopropylcarbonyl-2-fluorobenzyl)-4-(4-fluorophenylsulfonylthio)-piperidine] | 110 to 121 |  |  |  |  |
| COc1ccc(S(=O)(=O)SC2CCN(C(C(=O)C3CC3)c3ccccc3F)CC2)cc1 (stereo not drawn) [Example 12 (b), 1-(α-Cyclopropylcarbonyl-2-fluorobenzyl)-4-(4-methoxyphenylsulfonylthio)piperidine] |  | 19.2 | 93.9 | 100 |  |
| COc1ccc(S(=O)(=O)SC2CCN(C(C(=O)C3CC3)c3ccccc3F)CC2)cc1 (stereo not drawn) [Example 12, 1-(α-Cyclopropylcarbonyl-2-fluorobenzyl)-4-(4-methoxyphenylsulfonylthio)piperidine] | 113 to 122 |  |  |  |  |
| Cc1ccc([S+]([O-])SC2CCN(C(C(=O)C3CC3)c3ccccc3F)CC2)cc1 (stereo not drawn) [Example 13 (b), 1-(α-Cyclopropylcarbonyl-2-fluorobenzyl)-4-(4-methylphenylsulfinylthio)-piperidine] |  | 13.3 | 40 | 91.8 |  |
| Cc1ccc([S+]([O-])SC2CCN(C(C(=O)C3CC3)c3ccccc3F)CC2)cc1 (stereo not drawn) [Example 13, 1-(α-Cyclopropylcarbonyl-2-fluorobenzyl)-4-(4-methylphenylsulfinylthio)-piperidine] | 110 to 118 |  |  |  |  |
| Cc1ccc([S+]([O-])SC2CCN(C(C(=O)C3CC3)c3ccccc3F)C2)cc1 (stereo not drawn) [Example 14 (b), 1-(α-Cyclopropylcarbonyl-2-fluorobenzyl)-3-(4-methylphenylsulfinylthio)-pyrrolidine] |  | 28.6 | 64 | 95.8 |  |
| Cc1ccc([S+]([O-])SC2CCN(C(C(=O)C3CC3)c3ccccc3F)C2)cc1 (stereo not drawn) [Example 14, 1-(α-Cyclopropylcarbonyl-2-fluorobenzyl)-3-(4-methylphenylsulfinylthio)-pyrrolidine] | 87 to 100 |  |  |  |  |
| C[S+]([O-])SC1CCN(C(C(=O)C2CC2)c2ccccc2F)CC1 (stereo not drawn) [Example 15 (b), 1-(α-Cyclopropylcarbonyl-2-fluorobenzyl)-4-methylsulfinylthiopiperidine] |  | 12.3 | 28.1 | 71.1 |  |
| C[S+]([O-])SC1CCN(C(C(=O)C2CC2)c2ccccc2F)CC1 (stereo not drawn) [Example 15, 1-(α-Cyclopropylcarbonyl-2-fluorobenzyl)-4-methylsulfinylthiopiperidine] | 105 to 111 |  |  |  |  |
| Cc1ccc(SSC2CCN(C(C(=O)C3CC3)c3ccccc3F)CC2)cc1 (stereo not drawn) [Example 16, 1-(α-Cyclopropylcarbonyl-2-fluorobenzyl)-4-(4-methylphenyldisulfanyl)-piperidine] | 96 to 103 |  |  |  |  |
| O=C(C1CC1)C(c1ccccc1F)N1CCC(SSc2ccccc2[N+](=O)[O-])CC1 (stereo not drawn) [Example 18, 1-(α-Cyclopropylcarbonyl-2-fluorobenzyl)-4-(2-nitrophenyldisulfanyl)-piperidine] | 110 to 116 |  |  |  |  |
| N[C@@H](CSSC1CCN(C(C(=O)C2CC2)c2ccccc2F)C/C1=C/C(=O)O)C(=O)O (stereo partly drawn) [Example 19, (Z)-4-[(R)-2-Amino-2-carboxyethyldisulfanyl]-3-carboxymethylidene-1-(α-cyclopropylcarbonyl-2-fluorobenzyl)piperidine] | 135 to 138 |  |  |  |  |
